15 compounds from patent publication US20230072683A1, “PYRIDO-PYRIMIDIN DERIVATIVES AND PHARMACEUTICAL COMPOSITION, FOR USE IN PREVENTING OR TREATING PI3 KINASE RELATED DISEASES, COMPRISING SAME AS ACTIVE INGREDIENT” (BORYUNG PHARMACEUTICAL CO., LTD, priority 2019, published 2023) can be followed below.

SMILES strings stand for the structures. Read-outs that look alike come from different tables or passages of the source.

Test [1] addresses DNA-PK(h) (Homo sapiens, UniProt P78527). In words: Evaluation of inhibitory activity against DNA-PK (HTRF kinase assay, GST-cMyc-p53 substrate). In kind it is biochemical. The settings on record: for inhibition at 0.01 µM: compound concentration 0.01 μM, read-out: EXP_VALUE(% Inhibition) DNA-PK(h) 0.01 μM; for inhibition at 0.1 µM: read-out: EXP_VALUE(% Inhibition) DNA-PK(h) 0.1 μM. The method, boiled down: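 Human DNA-PK with 50 μM GST-cMyc-p53 substrate; reaction started with Mg/ATP, run 30 min at room temperature, stopped with EDTA. Phospho-Ser15 p53 detected by HTRF (Eu anti-phospho-Ser15, d2 anti-GST), signal = 10000×(Em 665/Em 620).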
In general terms: Time-resolved FRET reads energy transfer from a long-lived donor to a nearby acceptor.

Test [2] has as its target PI3K-δ (PI3K(p1108/p857) (h)) (Homo sapiens, UniProt O00329). Kind of test: Evaluation of inhibitory activity against PI3K-δ (HTRF kinase assay). In kind it is biochemical. The settings on record: for inhibition at 0.01 µM: compound concentration 0.01 μM, read-out: EXP_VALUE(% Inhibition) PI3K-δ 0.01 μM; for inhibition at 0.1 µM: read-out: EXP_VALUE(% Inhibition) PI3K-δ 0.1 μM. The method, boiled down:
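HTRF read-out (665/620 nm ratio ×10000) used Eu-labelled anti-GST, GST-tagged GRP1 PH domain and streptavidin-allophycocyanin after EDTA/PIP3 stop.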

Sequence of PI3K-δ (PI3K(p1108/p857) (h)) (O00329 whole entry, the tested form may be a part): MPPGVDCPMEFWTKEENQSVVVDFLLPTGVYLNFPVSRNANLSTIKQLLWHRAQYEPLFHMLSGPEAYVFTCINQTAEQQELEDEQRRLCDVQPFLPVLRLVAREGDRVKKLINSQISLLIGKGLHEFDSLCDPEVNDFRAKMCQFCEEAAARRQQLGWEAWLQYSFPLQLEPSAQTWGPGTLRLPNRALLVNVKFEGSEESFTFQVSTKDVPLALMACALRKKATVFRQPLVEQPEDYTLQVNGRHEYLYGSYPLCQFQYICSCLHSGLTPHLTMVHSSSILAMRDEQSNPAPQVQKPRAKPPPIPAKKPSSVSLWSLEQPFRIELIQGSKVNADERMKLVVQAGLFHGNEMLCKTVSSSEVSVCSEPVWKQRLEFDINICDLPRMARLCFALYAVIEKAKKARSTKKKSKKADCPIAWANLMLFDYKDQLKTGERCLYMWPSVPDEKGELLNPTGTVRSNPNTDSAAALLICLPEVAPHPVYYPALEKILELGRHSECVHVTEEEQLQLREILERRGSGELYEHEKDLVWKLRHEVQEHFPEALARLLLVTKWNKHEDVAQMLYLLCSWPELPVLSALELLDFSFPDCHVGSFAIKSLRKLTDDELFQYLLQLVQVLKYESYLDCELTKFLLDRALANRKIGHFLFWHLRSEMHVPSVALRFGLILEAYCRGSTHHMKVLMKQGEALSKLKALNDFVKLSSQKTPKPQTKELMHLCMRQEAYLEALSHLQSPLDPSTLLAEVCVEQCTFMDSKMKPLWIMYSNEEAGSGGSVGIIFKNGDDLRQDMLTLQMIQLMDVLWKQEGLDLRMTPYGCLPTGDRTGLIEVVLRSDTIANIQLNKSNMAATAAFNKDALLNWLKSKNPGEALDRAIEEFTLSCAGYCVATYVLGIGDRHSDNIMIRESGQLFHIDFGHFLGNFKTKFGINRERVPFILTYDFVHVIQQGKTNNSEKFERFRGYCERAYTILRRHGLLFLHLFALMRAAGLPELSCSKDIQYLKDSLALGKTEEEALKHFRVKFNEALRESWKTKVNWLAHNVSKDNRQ
Sequence of PI3K-δ (PI3K(p1108/p857) (h)) (P27986 whole entry partner, the tested form may be a part): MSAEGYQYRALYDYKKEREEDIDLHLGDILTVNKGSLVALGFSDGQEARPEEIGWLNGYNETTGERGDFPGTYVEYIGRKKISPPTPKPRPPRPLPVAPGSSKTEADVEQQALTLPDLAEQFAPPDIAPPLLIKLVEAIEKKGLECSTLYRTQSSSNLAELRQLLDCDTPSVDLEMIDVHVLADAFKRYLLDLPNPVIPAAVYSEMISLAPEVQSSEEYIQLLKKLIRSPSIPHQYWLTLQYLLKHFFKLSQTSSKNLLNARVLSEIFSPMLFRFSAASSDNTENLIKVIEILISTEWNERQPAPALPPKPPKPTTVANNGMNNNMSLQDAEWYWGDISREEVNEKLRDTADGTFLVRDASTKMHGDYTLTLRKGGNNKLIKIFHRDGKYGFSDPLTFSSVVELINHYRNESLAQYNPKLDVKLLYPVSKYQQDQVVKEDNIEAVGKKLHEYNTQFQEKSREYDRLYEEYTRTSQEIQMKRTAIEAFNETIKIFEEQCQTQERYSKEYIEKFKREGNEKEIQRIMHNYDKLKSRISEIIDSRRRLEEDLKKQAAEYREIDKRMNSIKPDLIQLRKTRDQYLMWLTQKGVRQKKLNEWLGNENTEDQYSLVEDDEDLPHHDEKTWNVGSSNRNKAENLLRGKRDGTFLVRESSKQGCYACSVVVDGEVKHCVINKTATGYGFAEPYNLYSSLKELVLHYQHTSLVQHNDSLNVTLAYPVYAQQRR

Regarding `C[C@H](Nc1ncnc2[nH]ccc(=O)c12)c1cc2cccc(-c3cnn(C)c3)c2c(=O)n1-c1ccccc1` [Example 15, (S)-4-((1-(8-(1-methyl-1H-pyrazol-4-yl)-1-oxo-2-phenyl-1,2-dihydroisoquinolin-3-yl)ethyl)amino)pyrido[2,3-d]pyrimidin-5(8H)-one], the inhibition at 0.01 µM in test [1] amounted to 24%; in test [2], 109%. Also, the inhibition at 0.1 µM in test [1] (compound concentration 0.1 μM) was determined as 37%; in test [2] (compound concentration 0.1 μM) it was 108%.
For `C[C@H](Nc1ncnc2[nH]ccc(=O)c12)c1c(Cl)c2cccc(-c3ccc(S(C)(=O)=O)nc3)c2c(=O)n1-c1ccccc1` [Example 219, (S)-4-((1-(4-chloro-8-(6-(methylsulfonyl)pyridin-3-yl)-1-oxo-2-phenyl-1,2-dihydroisoquinolin-3-yl)ethyl)amino)pyrido[2,3-d]pyrimidin-5(8H)-one], the inhibition at 0.01 µM in test [1] was 82%; in test [2] it was 97%.
As to `C[C@H](Nc1ncnc2[nH]ccc(=O)c12)c1c(Cl)c2cccc(-c3cnc(NC4CC4)nc3)c2c(=O)n1-c1ccccc1` [Example 203, (S)-4-((1-(4-chloro-8-(2-(cyclopropylamino)pyrimidin-5-yl)-1-oxo-2-phenyl-1,2-dihydroisoquinolin-3-yl)ethyl)amino)pyrido[2,3-d]pyrimidin-5(8H)-one], the inhibition at 0.01 µM in test [1] came out at 79%; in test [2] it was 106%.
Take `C[C@H](Nc1ncnc2[nH]ccc(=O)c12)c1c(Cl)c2cccc(N3CCCC3O)c2c(=O)n1-c1ccccc1` (stereo partly drawn) [Example 339, 4-(((1S)-1-(4-chloro-8-(2-hydroxypyrrolidin-1-yl)-1-oxo-2-phenyl-1,2-dihydroisoquinolin-3-yl)ethyl)amino)pyrido[2,3-d]pyrimidin-5(8H)-one]: the inhibition at 0.01 µM came to 8% in test [1] and 69% in test [2]. For the same compound, the inhibition at 0.1 µM came to 52% in test [1] (compound concentration 0.1 μM) and 20% in test [2] (compound concentration 0.1 μM).
On to `C[C@H](Nc1ncnc2[nH]ccc(=O)c12)c1c(Cl)c2cccc(/C(N)=N/O)c2c(=O)n1-c1ccccc1` [Example 350, (S,Z)-4-chloro-N′-hydroxy-1-oxo-3-(1-((5-oxo-5,8-dihydropyrido[2,3-d]pyrimidin-4-yl)amino)ethyl)-2-phenyl-1,2-dihydroisoquinoline-8-carboximidamide], for which the values for the inhibition at 0.01 µM in test [1] and in test [2] were 15% and 109%, respectively. In addition, the inhibition at 0.1 µM in test [1] (compound concentration 0.1 μM) was 55%; in test [2] (compound concentration 0.1 μM) it was 117%.
Take `CC[S@@](=N)(=O)c1cccc2c(Cl)c([C@H](C)Nc3ncnc4[nH]ccc(=O)c34)n(-c3ccccc3)c(=O)c12` [Example 435, 4-(((S)-1-(4-chloro-8-((R)-ethylsulfonimidoyl)-1-oxo-2-phenyl-1,2-dihydroisoquinolin-3-yl)ethyl)amino)pyrido[2,3-d]pyrimidin-5(8H)-one]: the inhibition at 0.1 µM was determined as 18% in test [1] (compound at 0.1 μM) and 24% in test [2] (compound at 0.1 μM).
As for `C[C@H](Nc1ncnc2[nH]ccc(=O)c12)c1c(Cl)c2cccc(-c3ccc4[nH]ccc4c3)c2c(=O)n1-c1ccccc1` [Example 73, (S)-4-((1-(4-chloro-8-(1H-indol-5-yl)-1-oxo-2-phenyl-1,2-dihydroisoquinolin-3-yl)ethyl)amino)pyrido[2,3-d]pyrimidin-5(8H)-one], the figures for the inhibition at 0.01 µM in test [1] and in test [2] were 53% and 72%, respectively. Also, the inhibition at 0.1 µM in test [1] (compound concentration 0.1 μM) amounted to 92%; in test [2] (compound concentration 0.1 μM), 86%.
Take `C[C@H](Nc1ncnc2[nH]ccc(=O)c12)c1cc2cccc(-c3ccc(F)cc3)c2c(=O)n1-c1ccccc1` [Example 14, (S)-4-((1-(8-(4-fluorophenyl)-1-oxo-2-phenyl-1,2-dihydroisoquinolin-3-yl)ethyl)amino)pyrido[2,3-d]pyrimidin-5(8H)-one]: the results for the inhibition at 0.01 µM in test [1] and in test [2] were 8% and 105%, respectively. Moreover, the inhibition at 0.1 µM turned out to be 27% in test [1] (compound concentration 0.1 μM) and 107% in test [2] (compound concentration 0.1 μM).
As for `C[C@H](Nc1ncnc2[nH]ccc(=O)c12)c1c(Cl)c2cccc(-c3cnc(N4CCN(C)CC4)cn3)c2c(=O)n1-c1ccccc1` [Example 211, (S)-4-((1-(4-chloro-8-(5-(4-methylpiperazin-1-yl)pyrazin-2-yl)-1-oxo-2-phenyl-1,2-dihydroisoquinolin-3-yl)ethyl)amino)pyrido[2,3-d]pyrimidin-5(8H)-one], the inhibition at 0.01 µM in test [1] is 55%; in test [2], 80%.
For `CNC(=O)c1cccc2c(Cl)c([C@H](C)Nc3ncnc4[nH]ccc(=O)c34)n(-c3ccccc3)c(=O)c12` [Example 274, (S)-4-chloro-N-methyl-1-oxo-3-(1-((5-oxo-5,8-dihydropyrido[2,3-d]pyrimidin-4-yl)amino)ethyl)-2-phenyl-1,2-dihydroisoquinoline-8-carboxamide], the inhibition at 0.01 µM stood at 18% in test [1] and 99% in test [2].
Take `C[C@H](Nc1ncnc2[nH]ccc(=O)c12)c1c(Cl)c2cccc(N3CCc4ccsc4C3)c2c(=O)n1-c1ccccc1` [Example 330, (S)-4-((1-(4-chloro-8-(4,7-dihydrothieno[2,3-c]pyridin-6(5H)-yl)-1-oxo-2-phenyl-1,2-dihydroisoquinolin-3-yl)ethyl)amino)pyrido[2,3-d]pyrimidin-5(8H)-one]: the inhibition at 0.01 µM came to 10% in test [1] and 30% in test [2]. Besides, the inhibition at 0.1 µM in test [1] (compound concentration 0.1 μM) was 32%; in test [2] (compound concentration 0.1 μM), 72%.
Regarding `COc1ncc(-c2cccc3c(Cl)c([C@H](C)Nc4ncnc5[nH]ccc(=O)c45)n(-c4ccccc4)c(=O)c23)nc1OC` [Example 28, (S)-4-((1-(4-chloro-8-(5,6-dimethoxypyrazin-2-yl)-1-oxo-2-phenyl-1,2-dihydroisoquinolin-3-yl)ethyl)amino)pyrido[2,3-d]pyrimidin-5(8H)-one], the inhibition at 0.01 µM in test [1] stood at 61%; in test [2], 69%.
`C[C@H](Nc1ncnc2[nH]ccc(=O)c12)c1c(Cl)c2cccc(-c3ncc(F)cn3)c2c(=O)n1-c1ccccc1` [Example 53, (S)-4-((1-(4-chloro-8-(5-fluoropyrimidin-2-yl)-1-oxo-2-phenyl-1,2-dihydroisoquinolin-3-yl)ethyl)amino)pyrido[2,3-d]pyrimidin-5(8H)-one]: the inhibition at 0.01 µM in test [1] is -3%; in test [2], 11%.
For the compound `CC(C)c1ncc(-c2cccc3c(Cl)c([C@H](C)Nc4ncnc5[nH]ccc(=O)c45)n(-c4ccccc4)c(=O)c23)cn1` [Example 381, (S)-4-((1-(4-chloro-8-(2-isopropylpyrimidin-5-yl)-1-oxo-2-phenyl-1,2-dihydroisoquinolin-3-yl)ethyl)amino)pyrido[2,3-d]pyrimidin-5(8H)-one], the inhibition at 0.1 µM was found to be 69% in test [1] (compound at 0.1 μM) and 81% in test [2] (compound at 0.1 μM).
Take `C[C@H](Nc1ncnc2[nH]ccc(=O)c12)c1c(Cl)c2cccc(-c3ccc[nH]3)c2c(=O)n1-c1ccccc1` [Example 258, (S)-4-((1-(4-chloro-1-oxo-2-phenyl-8-(1H-pyrrol-2-yl)-1,2-dihydroisoquinolin-3-yl)ethyl)amino)pyrido[2,3-d]pyrimidin-5(8H)-one]: the inhibition at 0.01 µM in test [1] came to 13%; in test [2], 86%. The inhibition at 0.1 µM came out at 12% in test [1] (compound concentration 0.1 μM) and 101% in test [2] (compound concentration 0.1 μM).

As usually defined, the inhibition is the relative decrease from the control value, in per cent.
